Results reported in US12564583B2, “Small molecules against cereblon to enhance effector T cell function” (H. LEE MOFFITT CANCER CENTER AND RESEARCH INSTITUTE, INC., priority 2016, dated 2026).
Non-standard residues stand in square brackets, D forms with d. Residues, ends and D or L forms follow the SMILES beside them. pGlu = O=C1CC[C@@H](C(=O)O)N1

What was measured:
IL-2 = IL-2 relative to DMSO; type: cell-based
[1] = Viability relative to DMSO; type: cell-based; set-up: concentration or dose not given beside the values
[2] = target: thalidomide binding domain (TBD) of cereblon (Homo sapiens, UniProt Q96SW2); experiment: Cereblon binding (DSF, FP/FI); conditions: for inhibition at 200 µM: read-out: Cereblon Binding (≥50% inhibition at 200 μM)
Chain of thalidomide binding domain (TBD) of cereblon (Q96SW2 318-426 limits assumed): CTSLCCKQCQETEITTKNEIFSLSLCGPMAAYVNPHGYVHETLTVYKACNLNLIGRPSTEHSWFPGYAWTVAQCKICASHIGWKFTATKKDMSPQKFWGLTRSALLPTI
Protocol: Several libraries are available for screening inhibitors. Virtual analysis was formulated and then theoretical design of chemical test kit and virtual screen of test kit were carried out. Physical binding studies were also completed for the initial compounds using DSF and FP assays after they are fully tested. TEST KITs that represent the compounds identified from each of the available chemical libraries based on virtual chemical structures were also made.

Compound	IL-2 (%) (Relative to DMSO) (IL-2)	viability [1] [%]	Cereblon Binding (≥50% inhibition at 200 μM) [2]	inhibition at 200 µM [2] [%]
COC(=O)[C@H](C)NC(=O)[C@@H]1CCC(=O)N1 ([pGlu]-Ala-OMe)	11.7	101	No	
O=C1c2ccccc2C(=O)N1c1cc[nH]c(=O)c1	123.3	95.3	No	
CC(=O)N[C@H](C(=O)NC1CCC(=O)NC1=O)C(C)C (stereo partly shown)	126.4	79.4	DSF (check) FI (borderline)	
O=C1CCC(NCc2ccccc2)C(=O)N1 (stereo not shown)	40.4	98		> 50
O=C1CCC(NC(=O)CCNS(=O)(=O)c2ccccc2)C(=O)N1 (stereo not shown)	32.7	77.2		> 50
COc1ccc(C2=NNC(=O)CC2)cc1OC	12.4	100	No	
Nc1ccc(Cl)cc1C(=O)NCCN1CCC(=O)NC1=O	20.6	78.8		> 50
Nc1cccc2c1C(=O)N(C1CCC(=O)NC1=O)C2=O (stereo not shown) [drawing 76]	208.6	96.3		> 50
O=C1CCC(N2CCCC(c3ccccc3)C2)C(=O)N1 (stereo not shown)	45.3	92.1	Yes*	
O=C1CCC(NCc2ccccn2)C(=O)N1 (stereo not shown)	7.8	84.9		> 50
O=C1CCC(NCc2ccc(N3CCOCC3)cc2)C(=O)N1 (stereo not shown)	14.9	94.5		> 50
O=C1NC(=O)c2ccccc21	110.8	92.4	No	
Nc1ccccc1S(=O)(=O)NC1CCC(=O)NC1=O (stereo not shown)	54.7	99.1	Yes*	
COc1ccc2c(c1)CCN(C1CCC(=O)NC1=O)C2 (stereo not shown)	79.0	74.4	Yes*	
O=C1CCC(NS(=O)(=O)c2ccc([N+](=O)[O-])cc2)C(=O)N1 (stereo not shown)	56.3	93.4	Yes*	
C=CCCCCCCCCC(=O)NC1CCC(=O)NC1=O (stereo not shown)	15.6	82.3		> 50

Compound	IL-2 (%) (Relative to DMSO) (IL-2)	viability [1] [%]	Cereblon Binding (≥50% inhibition at 200 μM) [2]	inhibition at 200 µM [2] [%]
O=C1CC[C@@H](C(=O)Nc2ccccc2)N1	0.5	106	No	
CC(C)C[C@H](NC(=O)[C@@H]1CCC(=O)N1)C(N)=O ([pGlu]-Leu-NH2)	24.6	110	No	
O=C1CCC(=O)N1	199.7	75.3		> 50
O=C1CCC(N2CCc3ccc(Cl)cc3C2)C(=O)N1 (stereo not shown)	69.9	93.2	Yes*	
CCN(Cc1ccccc1)C1CCC(=O)NC1=O (stereo not shown)	32.1	99.1		> 50
CNc1ccccc1C(=O)NCCn1cc(F)c(=O)[nH]c1=O	75.1	79.2	Yes*	
O=c1ccn(CCCc2ccc(Cl)cc2)c(=O)[nH]1	93.9	90.7	Yes*	
Nc1cc(Cl)ccc1C(=O)NCCN1CCC(=O)NC1=O	14.1	78.7	Yes*	
O=C1CCC(NCc2ccco2)C(=O)N1 (stereo not shown)	136.9	95.9		> 50
O=C(NCCn1ccc(=O)[nH]c1=O)c1ccccc1	124.5	84.2		> 50
NC(=O)[C@H](Cc1ccccc1)NC(=O)[C@@H]1CCC(=O)N1	39.8	74.7	No	
O=c1ccn(CCCc2ccccc2)c(=O)[nH]1	99.7	93.1	Yes*	
Nc1cccc2c1CN(C1CCC(=O)NC1=O)C2=O (stereo not shown) [drawing 75]		99.9		
O=C1CCC(NC(=O)c2ccccc2NC(=O)CCl)C(=O)N1 (stereo not shown)	40.3	69.9		> 50
COC(=O)c1ccccc1NC(=O)[C@H](CC(=O)NC1CCC(=O)NC1=O)NC(=O)OC(C)(C)C (stereo partly shown)	25.0	85.6	Yes*	
